Where a name gives a salt, the structure may show the parent alone.
Experiments:
[1] = biological target: T1, DPP-IV (Homo sapiens, UniProt P27487); experiment: Caco-2 DPP-IV Assay (inhibition of DPP-IV activity from human colonic carcinoma cell extracts); format: biochemical; conditions: human Caco-2 cell extract, H-Alanine-Proline-pNA substrate, pH 7.4, room temperature, 10 minutes
T1 construct: Cell extract is prepared from cells solubilized in 10 mM Tris-HCl; host or cells: Caco-2

[2] = biological target: T2, rat plasma DPP-IV (Rattus norvegicus, UniProt P14740); experiment: rat plasma DPP-IV inhibition assay; format: biochemical; conditions: H-Glycine-Proline-AMC substrate, pH 7.8, room temperature, 20 min
T2 construct: DPP-IV activity in human and rat plasma; from tissue; host or cells: rat plasma
T2 sequence (P14740 37-767 limits assumed): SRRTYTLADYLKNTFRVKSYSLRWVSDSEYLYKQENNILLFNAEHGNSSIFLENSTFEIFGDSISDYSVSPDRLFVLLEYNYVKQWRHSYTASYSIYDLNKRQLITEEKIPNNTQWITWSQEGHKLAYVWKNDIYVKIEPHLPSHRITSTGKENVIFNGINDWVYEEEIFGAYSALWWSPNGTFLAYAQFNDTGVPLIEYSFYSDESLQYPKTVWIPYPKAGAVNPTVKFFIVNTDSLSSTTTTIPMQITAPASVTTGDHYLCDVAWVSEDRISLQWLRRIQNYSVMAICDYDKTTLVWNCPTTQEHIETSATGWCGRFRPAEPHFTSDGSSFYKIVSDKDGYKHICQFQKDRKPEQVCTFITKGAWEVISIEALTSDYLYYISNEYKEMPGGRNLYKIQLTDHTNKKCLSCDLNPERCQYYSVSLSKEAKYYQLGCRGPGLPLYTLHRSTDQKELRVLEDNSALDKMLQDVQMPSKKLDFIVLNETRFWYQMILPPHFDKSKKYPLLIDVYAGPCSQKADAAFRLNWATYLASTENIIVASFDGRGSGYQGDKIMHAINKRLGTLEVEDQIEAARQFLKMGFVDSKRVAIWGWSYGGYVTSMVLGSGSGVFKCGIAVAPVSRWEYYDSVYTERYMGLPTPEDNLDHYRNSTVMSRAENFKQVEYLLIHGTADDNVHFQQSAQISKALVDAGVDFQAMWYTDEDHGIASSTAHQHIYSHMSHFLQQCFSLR
Protocol: Briefly, five μl of plasma are added to 96-well flat-bottom microtiter plates (Falcon), followed by the addition of 5 μl of 80 mM MgCl2 in incubation buffer (25 mM HEPES, 140 mM NaCl, 1% RIA-grade BSA, pH 7.8). After a 5 min. incubation at room temperature, the reaction is initiated by the addition of 10 μl of incubation buffer containing 0.1 mM substrate (H-Glycine-Proline-AMC; AMC is 7-amino-4-methylcoumarin). The plates are covered with aluminum foil (or kept in the dark) and incubated at room temperature for 20 min. […] A fluorescence-concentration curve of free AMC is generated using 0-50 μM solutions of AMC in assay buffer. The curve generated is linear and is used for interpolation of substrate consumption (catalytic activity in nmoles substrate cleaved/min). As with the previous assay, the potency of the test compounds as DPP-IV inhibitors, expressed as IC50, is calculated from 8-point, dose-response curves using a 4 parameter logistic function.

[3] = biological target: T3, human plasma DPP-IV (Homo sapiens, UniProt P27487); experiment: human plasma DPP-IV inhibition assay; format: biochemical; conditions: H-Glycine-Proline-AMC substrate, pH 7.8, room temperature, 20 min
T3 construct: DPP-IV activity in human and rat plasma; from tissue; host or cells: human plasma
T3 sequence (P27487 39-766 limits assumed): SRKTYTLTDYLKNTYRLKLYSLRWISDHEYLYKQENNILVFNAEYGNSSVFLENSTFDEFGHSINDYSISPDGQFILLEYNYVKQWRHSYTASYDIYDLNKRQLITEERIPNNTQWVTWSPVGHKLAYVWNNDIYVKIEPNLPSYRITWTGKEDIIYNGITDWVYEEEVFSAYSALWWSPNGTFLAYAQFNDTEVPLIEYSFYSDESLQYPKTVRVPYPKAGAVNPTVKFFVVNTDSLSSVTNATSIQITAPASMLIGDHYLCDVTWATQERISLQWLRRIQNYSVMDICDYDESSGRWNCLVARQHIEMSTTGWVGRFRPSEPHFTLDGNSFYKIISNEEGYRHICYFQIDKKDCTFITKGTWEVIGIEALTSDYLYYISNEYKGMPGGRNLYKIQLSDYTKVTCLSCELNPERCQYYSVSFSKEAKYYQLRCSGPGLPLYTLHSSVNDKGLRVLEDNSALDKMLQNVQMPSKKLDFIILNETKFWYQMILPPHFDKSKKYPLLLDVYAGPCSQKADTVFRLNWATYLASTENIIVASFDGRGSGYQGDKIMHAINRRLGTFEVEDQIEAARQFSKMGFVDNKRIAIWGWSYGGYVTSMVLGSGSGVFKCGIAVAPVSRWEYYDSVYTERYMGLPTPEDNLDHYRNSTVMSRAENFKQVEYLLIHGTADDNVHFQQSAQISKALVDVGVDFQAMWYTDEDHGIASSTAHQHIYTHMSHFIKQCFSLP

[4] = tested on: insulin resistant rats; experiment: early insulin response to an oral glucose challenge in insulin resistant rats; format: in vivo, Male Sprague-Dawley rats; conditions: 10 μmol/kg orally in CMC, high fat diet rats, oral glucose 1 g/kg 30 minutes after compound; % increase of the mean of the control animals

T1 sequence (P27487 whole entry): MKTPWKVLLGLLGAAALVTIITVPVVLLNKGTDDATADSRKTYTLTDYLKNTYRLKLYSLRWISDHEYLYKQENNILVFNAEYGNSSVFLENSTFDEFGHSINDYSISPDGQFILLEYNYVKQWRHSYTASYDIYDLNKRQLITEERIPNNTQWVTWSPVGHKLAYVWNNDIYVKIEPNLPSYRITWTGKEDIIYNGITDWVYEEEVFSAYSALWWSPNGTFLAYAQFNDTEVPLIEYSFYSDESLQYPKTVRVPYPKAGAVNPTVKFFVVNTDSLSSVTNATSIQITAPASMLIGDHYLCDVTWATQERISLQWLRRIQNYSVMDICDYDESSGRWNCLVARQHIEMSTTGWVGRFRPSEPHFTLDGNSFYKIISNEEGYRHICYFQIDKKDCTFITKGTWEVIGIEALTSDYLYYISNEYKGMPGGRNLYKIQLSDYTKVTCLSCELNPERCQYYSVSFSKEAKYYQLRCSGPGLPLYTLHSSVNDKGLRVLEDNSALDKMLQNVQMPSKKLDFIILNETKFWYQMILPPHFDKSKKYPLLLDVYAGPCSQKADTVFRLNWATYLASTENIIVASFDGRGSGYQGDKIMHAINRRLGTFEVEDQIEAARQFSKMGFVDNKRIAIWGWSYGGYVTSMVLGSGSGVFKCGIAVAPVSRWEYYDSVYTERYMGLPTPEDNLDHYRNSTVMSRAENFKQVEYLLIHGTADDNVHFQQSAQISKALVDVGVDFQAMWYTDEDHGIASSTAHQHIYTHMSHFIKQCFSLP

## CC1(C)C2CCC(CNCC(=O)N3CCC[C@H]3C#N)C1C2 (single isomer, unassigned) [Ex. 25, Pyrrolidine, 1-[[(6,6-dimethylbicyclo[3.1.1]hept-2-yl)methyl]amino]acetyl-2-cyano-[1S[1α,2α(S*),5α]]-(S)--, monohydrochloride]
[1]
  IC50: 140 nM
[2]
  IC50: 140 nM
[3]
  IC50: 110 nM

## N#Cc1ccc(NCCNCC(=O)N2CCC[C@H]2C#N)nc1 [Ex. 3, 1-[2-[(5-cyanopyridin-2-yl)amino]ethylamino]acetyl-2-cyano-(S)-pyrrolidine dihydrochloride]
[4]
  Increase of Insulin Response at 10 μmol/kg: 66%

## N#C[C@@H]1CCCN1C(=O)CNC1(CO)CCCC1 [Ex. 5, 1-[(1-hydroxymethylcyclopent-1-yl)amino]acetyl-2-cyano-(S)-pyrrolidine]
[4]
  Increase of Insulin Response at 10 μmol/kg: 108%

## N#C[C@@H]1CCCN1C(=O)CNCCNc1nccc(Cl)n1 [Ex. 7A, 1-[2-[(4-chloropyrimidin-2-yl)amino]ethylamino]acetyl-2-cyano-(S)-pyrrolidine]
[1]
  IC50: 165 nM

## N#C[C@@H]1CCCN1C(=O)CNCCNc1ncccc1Cl [Ex. 7B, 1-[2-[(3-chloropyridin-2-yl)amino]ethylamino]acetyl-2-cyano-(S)-pyrrolidine]
[1]
  IC50: 175 nM

## N#C[C@@H]1CCCN1C(=O)CNCCNc1nccc(C(F)(F)F)n1 [Ex. 7C]
[1]
  IC50: 290 nM

## N#C[C@@H]1CCCN1C(=O)CNCCc1ccccc1Cl [Ex. 7D, 1-[(2-chlorophenyl)ethylamino]acetyl-2-cyano-(S)-pyrrolidine]
[1]
  IC50: 382 nM

## N#C[C@@H]1CCCN1C(=O)CNCCNc1ccc([N+](=O)[O-])cn1 [Ex. 8, 1-[2-[(5-nitropyridin-2-yl)amino]ethylamino]acetyl-2-cyano-(S)pyrrolidine]
[4]
  Increase of Insulin Response at 10 μmol/kg: 144%

## N#C[C@@H]1CCCN1C(=O)CNCCNc1ncc(C(F)(F)F)cc1Cl [Ex. 9A, 1-[2-[(3-chloro-5-trifluoromethylpyridin-2-yl)amino]ethylamino]acetyl-2-cyano-(S)-pyrrolidine]
[1]
  IC50: 990 nM

## N#C[C@@H]1CCCN1C(=O)CNCCNc1ncc(Cl)cc1Cl [Ex. 9C, 1-[2-[(3,5-dichloropyridin-2-yl)amino]ethylamino]acetyl-2-cyano-(S)-pyrrolidine]
[1]
  IC50: 295 nM

## COc1cc(Br)c(CCNCC(=O)N2CCC[C@H]2C#N)cc1OC [Ex. 11, 1-[2-(2-bromo-4,5-dimethoxyphenyl)ethylamino]acetyl-2-cyano-(S)-pyrrolidine]
[1]
  IC50: 215 nM

## CC(C)OCCCNCC(=O)N1CCC[C@H]1C#N [Ex. 12, 1-[3-(isopropoxy)propylamino]acetyl-2-cyano-(S)-pyrrolidine monohydrochloride]
[1]
  IC50: 279 nM
[2]
  IC50: 38 nM
[4]
  Increase of Insulin Response at 10 μmol/kg: 59%
[3]
  IC50: 95 nM

## N#C[C@@H]1CCCN1C(=O)CNCCCN1CCCC1=O [Ex. 14, 1-[3-(2-oxo-pyrrolidin-1-yl)propylamino]acetyl-2-cyano-(S)-pyrrolidine monohydrochloride]
[1]
  IC50: 110 nM
[2]
  IC50: 24 nM
[3]
  IC50: 95 nM

## CCOc1ccc(CCNCC(=O)N2CCC[C@H]2C#N)cc1 [Ex. 16, Pyrrolidine, 1-[[2-(4-ethoxyphenyl)ethyl]amino]acetyl-2-cyano-, (S)--, monohydrochloride]
[1]
  IC50: 130 nM
[2]
  IC50: 60 nM
[3]
  IC50: 170 nM

## N#C[C@@H]1CCCN1C(=O)CN[C@@H]1CCN(Cc2ccccc2)C1 [Ex. 17, Pyrrolidine, 1-[(1-phenylmethyl-3-pyrrolidinyl)amino]acetyl-2-cyano-, (S)--(R)--, dihydrochloride]
[1]
  IC50: 60 nM
[2]
  IC50: 120 nM
[3]
  IC50: 250 nM

## COc1ccc(CCNCC(=O)N2CCC[C@H]2C#N)cc1 [Ex. 18, Pyrrolidine, 1-[[2-(4-methoxyphenyl)ethyl]amino]acetyl-2-cyano-, (S)--, monohydrochloride]
[1]
  IC50: 100 nM
[2]
  IC50: 70 nM
[3]
  IC50: 160 nM

## COc1cccc(CCNCC(=O)N2CCC[C@H]2C#N)c1 [Ex. 19, Pyrrolidine, 1-[[2-(3-methoxyphenyl)ethyl]amino]acetyl-2-cyano-, (S)--, monohydrochloride]
[1]
  IC50: 120 nM
[2]
  IC50: 50 nM
[3]
  IC50: 180 nM

## CN(CCCNCC(=O)N1CCC[C@H]1C#N)c1ccccc1 [Ex. 22, Pyrrolidine, 1-[[3-[(phenyl)(methyl)amino]propyl]amino]acetyl-2-cyano-, (S)--, dihydrochloride]
[1]
  IC50: 150 nM
[2]
  IC50: 60 nM
[3]
  IC50: 170 nM

## COc1ccc(CCNCC(=O)N2CCC[C@H]2C#N)cc1OC [Ex. 23, Pyrrolidine, 1-[2-[(3,4-dimethoxyphenyl)ethyl]amino]acetyl-2-cyano-, (S)--, monohydrochloride]
[1]
  IC50: 50 nM
[2]
  IC50: 40 nM
[3]
  IC50: 40 nM

## COc1ccc(OC)c(CCNCC(=O)N2CCC[C@H]2C#N)c1 [Ex. 26, Pyrrolidine, 1-[[2-(2,5-dimethoxyphenyl)ethyl]amino]acetyl-2-cyano-. (S)--, monohydrochloride]
[1]
  IC50: 170 nM
[2]
  IC50: 70 nM
[3]
  IC50: 240 nM

## N#C[C@@H]1CCCN1C(=O)CNCCC1=CCCCC1 [Ex. 27, Pyrrolidine, 1-[[2-(1-cyclohexenyl-1-yl)ethyl]amino]acetyl-2-cyano-, (S)--, monohydrochloride]
[1]
  IC50: 310 nM
[2]
  IC50: 160 nM
[3]
  IC50: 150 nM

## N#C[C@@H]1CCCN1C(=O)CNCCc1ccccn1 [Ex. 30, Pyrrolidine, 1-[[2-(2-pyridinyl)ethyl]amino]acetyl-2-cyano-, (S)--, dihydrochloride]
[1]
  IC50: 650 nM
[2]
  IC50: 90 nM
[3]
  IC50: 80 nM

## N#C[C@@H]1CCCN1C(=O)CNCc1ccccc1Sc1ccccc1CO [Ex. 35, Pyrrolidine, 1-[[[2-[(2-hydroxymethyl)phenyl]thio]phenylmethyl]amino]acetyl-2-cyano-,(S)--, monohydrochloride]
[1]
  IC50: 130 nM
[2]
  IC50: 340 nM
[3]
  IC50: 1090 nM

## COc1ccccc1CCNCC(=O)N1CCC[C@H]1C#N [Ex. 36, Pyrrolidine, 1-[[2-(2-methoxyphenyl)ethyl]amino]acetyl-2-cyano-, (S)--, monohydrochloride]
[1]
  IC50: 160 nM
[2]
  IC50: 80 nM
[3]
  IC50: 170 nM

## N#C[C@@H]1CCCN1C(=O)CNCCc1ccc(Cl)cc1Cl [Ex. 39, Pyrrolidine, 1-[[2-(2,4-dichlorophenyl)ethyl]amino]acetyl-2-cyano-, (S), monohydrochloride]
[1]
  IC50: 380 nM
[2]
  IC50: 200 nM
[3]
  IC50: 220 nM

## C[C@H](NCC(=O)N1CCC[C@H]1C#N)[C@H](O)c1ccccc1 [Ex. 41, Pyrrolidine, 1-[(2-hydroxy-2-phenylethyl)amino]acetyl-2-cyano-[2S-[1R*,2S*]-monohydrochloride]
[1]
  IC50: 140 nM
[2]
  IC50: 50 nM
[3]
  IC50: 100 nM

## N#C[C@@H]1CCCN1C(=O)CNCCc1ccccc1F [Ex. 42, Pyrrolidine, 1-[[2-(2-fluorophenyl)ethyl]amino]acetyl-2-cyano-, (S)--, monohydrochloride]
[1]
  IC50: 240 nM
[2]
  IC50: 180 nM
[3]
  IC50: 140 nM

## COc1cc(CCNCC(=O)N2CCC[C@H]2C#N)cc(OC)c1 [Ex. 46, Pyrrolidine, 1-[2-[(3,5-dimethoxyphenyl)ethyl]amino]acetyl-2-cyano-, (S)--, monohydrochloride]
[1]
  IC50: 150 nM
[2]
  IC50: 60 nM
[3]
  IC50: 280 nM

## N#C[C@@H]1CCCN1C(=O)CNC1CCN(Cc2ccccc2)CC1 [Ex. 66, Pyrrolidine, 1-[(1-phenylmethyl-4-piperidinyl)amino]acetyl-2-cyano-, (S)--, monohydrochloride]
[1]
  IC50: 60 nM
[2]
  IC50: 40 nM
[3]
  IC50: 130 nM

Reference: patent publication US6124305A, “Use of N-(substituted glycyl)-2-cyanopyrrolidines in inhibiting dipeptidyl peptidase-IV” (Novartis AG, priority 1999, dated 2000)
